Data on six compounds can be found in US20260000596A1, “SEMI-SYNTHETIC RHAMNOLIPIDS” (The Procter & Gamble Company, priority 2024, published 2026).

≈ marks a conversion by molar mass, not a printed value. Where only a bound is given, the exact number is not on record here.

What all share (format): cell-based
Experiment [1] relates to Staphylococcus aureus ATCC #6538. In words: Minimum Inhibitory Concentration (MIC) Assay with Minimum Biocidal Concentration (MBC). The note with it: solvent DMSO; for MBC / MIC: Staphylococcus aureus, ATCC6538, 24 h; for MBC: read-out: S. aureus MBC (ppm); for MIC: read-out: S. aureus MIC (ppm). Here is the method:
The Minimum Inhibitory Concentration (MIC) Assay is a 96-well high throughput method that determines the minimum concentration of an active required to inhibit the growth of microorganisms. Organism preparation: Compounds were evaluated against the following microorganisms: Staphylococcus aureus ATCC #6538 (American Type Culture Collection, Manassas, Virginia, USA). To prepare bacteria solutions, bacteria were streaked on Tryptic Soy Agar (TSA) and incubated at 30-35° C. for 18-24 hrs. Confluent growth was transferred to saline (0.85% NaCl) and turbidometrically adjusted to a target concentration of 10^7-10^8 CFU/ml. This inoculum solution was further diluted 1:1000 in Tryptic Soy Broth (pH 7) for assay use. Assay: Two-fold serial dilutions were prepared in Dimethylsulfoxide (DMSO, Thermo Scientific Pierce DMSO, Sequencing Grade) or sterile water for each test sample. In a sterile 96-well plate, each dilution was further diluted in broth inoculum such that each well contained 5% dilution and 95% broth inoculum. Bacteria plates were incubated on an orbital shaker (Heidolph Titramax 1000 Vibrating Platform Shaker, 200-300 rpm) for 24±2 hrs at 35° C. After incubation, the optical density (OD) of each well was measured in a spectrophotometer (Victor Nivo Multimode Plate Reader) at 600 nm. […] To determine the Minimum Biocidal Concentration (MBC), 2 ul from each well was pipetted onto neutralizing agar (Modified Letheen Agar with Tween) and incubated for 24 hrs at 30-35° C. The MBC was determined as the most dilute concentration with no visible growth.

Experiment [2] concerns Escherichia coli ATCC 8739. In words: Minimal Kill Concentration Assay (MKCA), E. coli. The note with it: solvent DMSO, 20-minute contact time; for MBC: Escherichia coli, ATCC8739, 20 min, read-out: E. coli MKC (ppm). Here is the method: (§1) The MKC assay is a 96 well plate method to determine the minimum concentration of a test material or composition needed to kill Gram-negative and Gram-positive bacteria (Escherichia coli ATCC 8739 and Staphylococcus aureus ATCC 6538, respectively). The bacterial suspensions are prepared from 10× freezer stocks with 15% glycerol. The freezer stocks are centrifuged at 13,000×g (Eppendorf Centrifuge […] No. 541705483) for 1 minute. The supernatant is removed, and the cell pellet is resuspended in 1 mL saline (Sodium chloride solution 0.9%, Cytiva REF: Z1376), and then transferred to 9 mL saline. The target cfu/ml is 10^8, which is confirmed via serial diluting and plating on TSA plates (Tryptic Soy Agar-Sigma-Aldrich Cat #22091). Then 50 μL (25 μL if low on test materials) of bacteria is added to each well of a 96 well 0.5 mL V-Bottom plate (Greiner bio-one REF: 786201) to make a bacteria plate, one separate plate for each bacterium. The dilutions of the test compounds are prepared in a separate 96 well plate. The test compounds are tested at six dilutions in duplicates or with no replication diluted across the entire plate. The test compounds are prepared in Dimethyl Sulfoxide (Sigma Aldrich GR ACS Cat. No: MX1458-6) or sterile water at 2× the intended test concentration, and then serially diluted in the appropriate vehicle 1:2 across the plate using a multichannel. 50 μL (25 μL if low on test materials) from the test compound plate is added to each well in the bacteria plate all at once using an Integra VIAFLOW 96 channel pipette (Model: VIAFLO 96) and the Integra 300 μL Head (Part No. 6103). With addition of the 2× compounds bacteria plate, the compounds are diluted to a 1× test concentration. The addition of the test compounds to the bacteria wells starts the 20-minute contact time. The plates are mixed well using a Mix-Mate (Eppendorf SE). After 20 minutes, 1 μL from each well of the bacteria plate is transferred to premade Tryptic Soy Agar (TSA) plates (OmniTray Cell Culture Treated w/Lid Sterile, Cat. No: 165218) for spot plating using the Integra VIAFLOW 96 with the Integra 12.5 μL head (Part No. 6101). Then 4 μL from each well of the bacteria/compound plate is transferred to another 96 well plate containing 36 μL of neutralizer broth Modified Letheen Broth (BD Difco Letheen Broth, Modified REF 263010). The contact time is stopped at 20 minutes once the compound plate is neutralized. The plates are mixed well using a Mix-Mate and then 1 μL of the neutralizer+sample mix is transferred to a TSA OmniTray plate using the Integra VIAFLOW and Integra 12.5 μL head. The TSA spot plates are then incubated overnight for 20 hours at 37° C. in an Incubator. This process is done for both bacteria species. After overnight incubation, the plates are removed from the incubator and the results recorded by observing which dilutions had bacterial kill/growth. The last dilution that had kill for both replicates is recorded as the MKC. A positive control of Benzalkonium chloride (Sigma Aldrich Cat. No.: 12060-5G) and vehicle controls are always included in the test.

For experiment [3], the system named is Staphylococcus aureus ATCC 6538. The experiment can be described thus: Minimal Kill Concentration Assay (MKCA), S. aureus. The conditions noted are these: solvent DMSO, 20-minute contact time; for minimal kill concentration (20-minute contact): Staphylococcus aureus, ATCC6538, 20 min, read-out: S. aureus MKC (ppm). Here is the method: as §1
The mark [4] stands for this setting: Table 4, derivatized rhamnolipids.

The MIC is the least concentration at which growth counts as inhibited. `CCCCCCCC(CC(=O)NCCO[Si](C)(C)C(C)(C)C)O[C@@H]1O[C@@H](C)[C@H](O)[C@@H](O)[C@H]1O[C@@H]1O[C@@H](C)[C@H](O)[C@@H](O)[C@H]1O` (stereo partly drawn) [N-(2-((tert-butyldimethylsilyl)oxy)ethyl)-3-(((2R,3R,4R,5R,6S)-4,5-dihydroxy-6-methyl-3-(((2S,3R,4R,5R,6S)-3,4,5-trihydroxy-6-methyltetrahydro-2H-pyran-2-yl)oxy)tetrahydro-2H-pyran-2-yl)oxy)decanamide]: in experiment [1] (Table 5), the MBC was 637 µg/mL (≈ 0.999 mM) and the minimum inhibitory concentration (MIC) is 319 µg/mL (≈ 0.5 mM). Besides, in experiment [2] (setting [4]), the MBC was over 6370 µg/mL. The minimal kill concentration (20-minute contact) in experiment [3] (setting [4]) was over 6370 µg/mL.
`CCCCCCCC(CC(=O)NC)O[C@@H]1O[C@@H](C)[C@H](O)[C@@H](O)[C@H]1O[C@H]1O[C@@H](C)[C@@H](O)[C@H](O)[C@@H]1O` (stereo partly drawn) [3-(((2R,3R,4R,5R,6S)-4,5-dihydroxy-6-methyl-3-(((2R,3S,4S,5S,6S)-3,4,5-trihydroxy-6-methyltetrahydro-2H-pyran-2-yl)oxy)tetrahydro-2H-pyran-2-yl)oxy)-N-methyldecanamide]: the MBC in experiment [1] (Table 5) was over 1970 µg/mL; in experiment [2] (setting [4]), over 4940 µg/mL. Also, in experiment [1] (Table 5), the MIC was over 1970 µg/mL. The minimal kill concentration (20-minute contact) in experiment [3] (setting [4]) is over 4940 µg/mL.
On to “N-benzyl-3-(((2R,3R,4R,5R,6S)-4,5-dihydroxy-6-methyl-3-(((2R,3S,4S,5S,6S)-3,4,5-trihydroxy-6-methyltetrahydro-2H-pyran-2-yl)oxy)tetrahydro-2H-pyran-2-yl)oxy)decanamide”, for which, in experiment [1] (Table 5), the “S. aureus MBC (ppm)” value was over 2278.3 ppm and the “S. aureus MIC (ppm)” value is listed as 2278.8 ppm. The “E. coli MKC (ppm)” value in experiment [2] (setting [4]) is listed as over 5696.9 ppm. Besides, the “S. aureus MKC (ppm)” value in experiment [3] (setting [4]) is given as over 5696.9 ppm.
With `CCCCCCCC(CC(=O)O)O[C@@H]1O[C@@H](C)[C@H](O)[C@@H](O)[C@H]1O[C@@H]1O[C@H](C)C(O)[C@@H](O)[C@H]1O` (stereo partly drawn) [3-(((2R,3R,4R,5R,6S)-4,5-dihydroxy-6-methyl-3-(((2S,3R,4R,6R)-3,4,5-trihydroxy-6-methyltetrahydro-2H-pyran-2-yl)oxy)tetrahydro-2H-pyran-2-yl)oxy)decanoic acid], in experiment [1] (Table 5), the MBC is over 1920 µg/mL and the MIC is over 1920 µg/mL. The MBC in experiment [2] (setting [4]) was over 4810 µg/mL. Further, the minimal kill concentration (20-minute contact) in experiment [3] (setting [4]) was over 4810 µg/mL.
For the compound `CCCCCCCC(CC(=O)N(C)C)O[C@@H]1O[C@@H](C)[C@H](O)[C@@H](O)[C@H]1O[C@@H]1O[C@H](C)C(O)[C@@H](O)[C@H]1O` (stereo partly drawn) [3-(((2R,3R,4R,5R,6S)-4,5-dihydroxy-6-methyl-3-(((2S,3R,4R,6R)-3,4,5-trihydroxy-6-methyltetrahydro-2H-pyran-2-yl)oxy)tetrahydro-2H-pyran-2-yl)oxy)-N,N-dimethyldecanamide], in experiment [1] (Table 5), the MBC was over 508 µg/mL and the MIC was over 508 µg/mL. Also, the MBC in experiment [2] (setting [4]) is over 5070 µg/mL. Further, in experiment [3] (setting [4]), the minimal kill concentration (20-minute contact) was over 5070 µg/mL.
As to `CCCCCCCCCCCCCC(O)CC(=O)O` (racemic) [DL-β-Hydroxypalmitic acid, reference compound], the “S. aureus MIC (ppm)” value in experiment [1] (Table 1.5, >=50% inhibition, 24 hrs at 35° C.) amounted to 102 ppm. In addition, the “S. aureus MBC (ppm)” value in experiment [1] (Table 1.5, no visible growth) is 204 ppm. In addition, in experiment [2] (Table 1.4b), the “E. coli MKC (ppm)” value was 136 ppm. In addition, the “S. aureus MKC (ppm)” value in experiment [3] (Table 1.4b) is given as over 1090 ppm.
